What follows are compounds tested against T1, Lysine-specific demethylase 4E (Homo sapiens, UniProt B2RXH2) (assay: FDH Coupled Inhibition Assay). Settings: pH 7.5; 37 °C.
T1 sequence (B2RXH2 whole entry): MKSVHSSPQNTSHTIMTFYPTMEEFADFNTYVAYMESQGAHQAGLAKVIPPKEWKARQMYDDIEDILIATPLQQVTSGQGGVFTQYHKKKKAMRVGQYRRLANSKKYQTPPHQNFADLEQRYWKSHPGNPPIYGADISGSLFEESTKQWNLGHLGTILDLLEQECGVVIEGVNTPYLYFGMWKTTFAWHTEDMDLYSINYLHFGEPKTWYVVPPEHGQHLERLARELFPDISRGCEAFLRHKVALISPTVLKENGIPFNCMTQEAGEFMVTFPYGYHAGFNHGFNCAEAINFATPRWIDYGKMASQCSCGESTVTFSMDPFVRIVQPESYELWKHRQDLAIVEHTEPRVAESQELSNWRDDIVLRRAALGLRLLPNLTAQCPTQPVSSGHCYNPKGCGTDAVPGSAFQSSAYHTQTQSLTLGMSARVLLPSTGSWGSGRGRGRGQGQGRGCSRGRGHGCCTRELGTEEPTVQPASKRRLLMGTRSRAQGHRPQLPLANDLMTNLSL
Protocol: A coupled-assay for JMJD2E activity employing formaldehyde dehydrogenase (FDH) from Pseudomonas putida was developed. Formaldehyde release by demethylation of the histone peptide substrate was monitored by its oxidation to give formate as catalyzed by FDH, which is carried out concomitantly with the reduction of NAD+. The production of NADH was monitored by fluorescence spectroscopy.

Compound | IC50 [mM]
CCCC(=O)O [butanoic acid] | > 10
O=C(O)c1ccncc1C(=O)O [pyridine-3,4-dicarboxylic acid] | > 10
COC(=O)c1ccnc(-c2cc(C(=O)O)ccn2)c1 [2-[4-(methoxycarbonyl)pyridin-2-yl]pyridine-4-carboxylic acid] | 0.0066

The remaining lines, values ahead:

IC50 [mM] | Compound
> 5 | O=C(O)c1cccnc1C(=O)O [pyridine-2,3-dicarboxylic acid]
> 10 | O=C(O)c1cncc(C(=O)O)c1 [pyridine-3,5-dicarboxylic acid]
